Source: publication PMC3038857, “Using Nuclear Receptor Activity to Stratify Hepatocarcinogens” (PLoS ONE, 2011)
Where two headings read alike, the source gives them in different places.

What was measured:
[1] = target: Human ER (ESR1) (Homo sapiens, UniProt P03372); assay: NVS_NR_hER: Human ER 3H-Estradiol (cell-free HTS); type: binding; details: scale not given, looks like -log10 of molar active concentration, 0 = no activity
Source text: (§1) These are a collection of biochemical assays measuring binding constants and enzyme inhibition values. Chemicals were initially screened at a single concentration in duplicate wells at a concentration of 10 [drawing 63] M for cytochrome P-450 assays and 25 [drawing 64] M for all others. […] These assays were run by Caliper Life Sciences (Hanover, MD) under contract to EPA. Short assay descriptions are available at: http://www.caliperls.com/products/contract-research/in-vitro/.
(§2) Cell-free HTS Assays: A collection of biochemical assays measuring binding constants and enzyme inhibition values. […] These assays were run by Caliper Life Sciences (Hanover, MD) under contract to EPA. Short assay descriptions are available at http://www.caliperls.com/products/contract-research/in-vitro/. Values for all endpoints were imported into GeneData Screener (Basel, Switzerland) and normalised to solvent controls from the same plate as the tested compounds and expressed as percent of neutral control. Concentration-response curves were fit in GeneData Screener (Basel, Switzerland) Condeseo module using the Hill equation and AC50 values were determined. […] Detailed description of the methods, data and analysis methods for this dataset are described in a separate publication.

[2] = target: T1, PPARg (PPARG) (Homo sapiens, UniProt P37231); assay: NVS_NR_hPPARg: Human PPARg Fluorescent Ligand (cell-free HTS); type: binding
T1 sequence (P37231 1-505): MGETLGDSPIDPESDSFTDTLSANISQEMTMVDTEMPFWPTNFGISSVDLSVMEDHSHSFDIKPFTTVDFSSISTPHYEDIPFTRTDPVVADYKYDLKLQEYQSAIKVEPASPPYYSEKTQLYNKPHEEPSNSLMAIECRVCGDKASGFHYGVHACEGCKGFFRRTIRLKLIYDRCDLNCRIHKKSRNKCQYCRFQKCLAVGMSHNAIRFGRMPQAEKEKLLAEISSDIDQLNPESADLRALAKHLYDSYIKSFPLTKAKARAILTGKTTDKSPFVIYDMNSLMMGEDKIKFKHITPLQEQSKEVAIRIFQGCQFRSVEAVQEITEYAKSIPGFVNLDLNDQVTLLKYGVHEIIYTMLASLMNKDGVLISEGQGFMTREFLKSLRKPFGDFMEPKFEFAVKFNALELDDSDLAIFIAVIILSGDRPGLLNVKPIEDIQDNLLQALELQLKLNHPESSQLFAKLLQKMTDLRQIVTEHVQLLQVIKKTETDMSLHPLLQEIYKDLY
Source text: as §1, §2

[3] = target: T1, PPARg (PPARG); assay: NCGC_PPARg_Agonist: GAL4 BLAM Reporter gene assay: PPARg; type: cell-based; set-up: expressed in transfected cells; host or cells: HEK293; details: agonist mode; scale not given, looks like -log10 of molar active concentration; 0 = no activity
Experimental: These assays measure binding constants and enzyme inhibition values for nuclear receptors. The targets include [drawing 67] , [drawing 68] , [drawing 69] , [drawing 70] , [drawing 71] , [drawing 72] , [drawing 73] , [drawing 74] , [drawing 75] and [drawing 76] . Each of the nuclear receptor targets was measured in agonist mode. Assays were run at the NIH Chemical Genomics Center (Rockville, MD).
Cell-based HTS Assays: These assays measuring binding constants and enzyme inhibition values for nuclear receptors. The targets include AR, ER, FXR, LXR, PPARα, PPARδ, PPARγ, RXRα, RXRβ and PXR. Each of the nuclear receptor targets was measured in both agonist and antagonist mode, but the antagonist data is still undergoing analysis due to possible interference between cytotoxicity and assay activity, so antagonist mode data were not used in the present analysis. Assays were run at the NIH Chemical Genomics Center (Rockville, MD) as part of the Tox21 collaboration. […] The R^2 was required to be ≥0.5. Values where only the highest concentration exceeded 50% activity were excluded to eliminate weak or false positives. Detailed description of the methods, data and analysis methods for this dataset will be presented in a separate publication.

[4] = tested on: CYP1A1; assay: CLZD_CYP1A1: Change in expression of CYP1A1 (primary human hepatocytes); type: cell-based; details: 24 hr
Outline: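 Chemicals are tested in human hepatocyte primary cultures over 0.004-40 µM (5 concentrations) for 6, 24 or 48 hr, and concentration- and time-dependent transcript changes are read by quantitative nuclease protection assay.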

[5] = scale not given, looks like -log10 of molar active concentration, 0 = no activity

Sequence of Human ER (ESR1) (P03372 whole entry): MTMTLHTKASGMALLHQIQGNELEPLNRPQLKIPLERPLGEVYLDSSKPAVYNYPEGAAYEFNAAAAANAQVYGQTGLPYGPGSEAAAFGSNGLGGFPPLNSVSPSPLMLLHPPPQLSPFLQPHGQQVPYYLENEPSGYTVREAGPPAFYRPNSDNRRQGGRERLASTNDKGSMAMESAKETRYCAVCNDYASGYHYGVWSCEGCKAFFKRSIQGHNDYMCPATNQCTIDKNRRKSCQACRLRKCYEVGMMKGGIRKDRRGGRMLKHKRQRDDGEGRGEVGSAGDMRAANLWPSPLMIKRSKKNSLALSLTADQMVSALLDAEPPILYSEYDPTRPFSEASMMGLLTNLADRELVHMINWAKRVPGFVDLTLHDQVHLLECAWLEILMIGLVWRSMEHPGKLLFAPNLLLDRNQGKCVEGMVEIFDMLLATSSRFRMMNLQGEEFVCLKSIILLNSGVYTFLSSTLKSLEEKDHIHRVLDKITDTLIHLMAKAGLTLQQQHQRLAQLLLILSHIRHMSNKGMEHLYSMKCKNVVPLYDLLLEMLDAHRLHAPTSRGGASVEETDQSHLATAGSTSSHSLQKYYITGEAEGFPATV

Compound | NVS_NR_hER [1] | NVS_NR_hPPARg [2, 5] | NCGC_PPARg_Agonist [3] | CLZD_CYP1A1_24 [4, 5] | CLZD_CYP1A1_24 [4] | NVS_NR_hPPARg [2]
C=CCOC(=O)C(C)(C)OC(=O)c1cc(-n2c(=O)cc(C(F)(F)F)n(C)c2=O)ccc1Cl [r47] | 0 | 0 | 0 | – | – | –
CC1=C(C(=O)Nc2ccccc2)SCCO1 [r53] | 0 | 0 | 0 | 4.822 | – | –
O=C(Nc1ccccc1-c1ccc(Cl)cc1)c1cccnc1Cl [r42] | 0 | 0 | 0 | 4.852 | – | –
COc1ccc(-c2ccccc2)cc1NNC(=O)OC(C)C [r38] | 0 | 0 | 0 | 4.891 | – | –
N#Cc1cc(Br)c(O)c(Br)c1 [r44] | 0 | 0 | 0 | 0 | – | –
CC(C)OC(=O)Nc1cccc(Cl)c1 [r59] | 0 | 0 | 0 | 0 | – | –
CCC(C)n1c(=O)[nH]c(C)c(Br)c1=O (stereo not drawn) [r43] | 0 | 0 | 0 | 4.897 | – | –
COc1nc(C)nc(NC(=O)NS(=O)(=O)c2ccccc2Cl)n1 [r62] | 0 | 0 | 0 | 0 | – | –
CC(C)N1C(=O)c2ccccc2NS1(=O)=O [r37] | 0 | 0 | 0 | 0 | – | –
CC(C)Oc1cc(-n2nc(C(C)(C)C)oc2=O)c(Cl)cc1Cl [row 225] | – | – | – | – | 4.998 | –
CCc1ccc(C(=O)NN(C(=O)c2cc(C)cc(C)c2)C(C)(C)C)cc1 [r290] | – | – | – | – | 5.222 | –
CCOC(=O)C(Cl)Cc1cc(-n2nc(C)n(C(F)F)c2=O)c(F)cc1Cl (stereo not drawn) [r54] | 0 | 0 | 0 | 0 | – | –
CCC(C)Nc1c([N+](=O)[O-])cc(C(C)(C)C)cc1[N+](=O)[O-] (stereo not drawn) [r48] | 0 | 0 | 0 | 0 | – | –
CSc1nc(NC(C)C)nc(NC(C)C)n1 [r256] | – | – | – | – | 5.071 | –
O=C1C2CC=CCC2C(=O)N1SC(Cl)(Cl)Cl (stereo not drawn) [r51] | 0 | 0 | 0 | 0 | – | –
CC(C)N1C(=O)N(c2ccccc2)CS/C1=N\C(C)(C)C [r45] | 0 | 0 | 0 | 0 | – | –
N#Cc1c(Cl)c(Cl)c(Cl)c(C#N)c1Cl [r58] | 0 | 6.265 | 0 | 0 | – | –

Compound | NVS_NR_hER [1] | NVS_NR_hPPARg [2, 5] | NCGC_PPARg_Agonist [3] | CLZD_CYP1A1_24 [4, 5] | CLZD_CYP1A1_24 [4] | NVS_NR_hPPARg [2]
CC(C)(c1ccc(O)cc1)c1ccc(O)cc1 [r40] | 6.151 | 0 | 0 | 0 | – | –
Cc1c(COC(=O)C2C(/C=C(\Cl)C(F)(F)F)C2(C)C)cccc1-c1ccccc1 (stereo not drawn) [r39] | 0 | 0 | 0 | 4.56 | – | –
CCc1nn(C)c(C(=O)NCc2ccc(C(C)(C)C)cc2)c1Cl [r291] | – | – | – | – | 4.87 | –
CCCC1COC(Cn2cncn2)(c2ccc(Cl)cc2Cl)O1 (stereo not drawn) [r262] | – | – | – | – | 4.952 | –
Cc1ccccc1CO[C@@H]1C[C@@]2(C(C)C)CC[C@]1(C)O2 [r64] | – | 0 | 0 | 0 | – | –
Nc1cnn(-c2ccccc2)c(=O)c1Cl [r56] | 0 | 0 | 0 | 0 | – | –
COC(=O)c1ccccc1CS(=O)(=O)NC(=O)Nc1nc(OC)cc(OC)n1 [r33] | 0 | 0 | 0 | 0 | – | –
COc1cc(Cl)c(OC)cc1Cl [r57] | 0 | 0 | 0 | 0 | – | –
CCCN(CCC)c1c([N+](=O)[O-])cc(C(F)(F)F)c(N)c1[N+](=O)[O-] [r252] | – | – | – | – | 5.053 | –
CNC(=O)Oc1cccc2ccccc12 [r52] | 0 | – | – | – | – | –
CCN(CC)C(=O)C(C)Oc1cccc2ccccc12 (stereo not drawn) [row 219] | – | – | – | – | 4.557 | –
CC(C)=CC1C(C(=O)OCc2coc(Cc3ccccc3)c2)C1(C)C (stereo not drawn) [r280] | – | – | – | – | – | 4.616
OB(O)O [r41] | 0 | 0 | 0 | – | – | –
CCCCOCN(C(=O)CCl)c1c(CC)cccc1CC [r46] | 0 | 0 | 0 | 5.141 | – | –
COc1nc(C)nc(NC(=O)NS(=O)(=O)c2ccccc2Cl)n1 [r63] | 0 | 0 | 0 | 0 | – | –
CCSC(=O)N(CC(C)C)CC(C)C [r49] | 0 | 0 | 0 | 0 | – | –
